Laboratory results: patent US8293895B2, “Carbapenem derivatives” (KBP Biosciences Co., Ltd., priority 2007, dated 2012)
Values after ≈ are worked out from the molar mass of the structure shown.

How the values were obtained:
klebsiella pneumonia = assay: In vitro antimicrobial activity, agar dilution method; format: cell-based; details: Klebsiella pneumoniae, klebsiella pneumonia clinical isolates
Text: (§1) Bacterial strains for test: All the bacterial strains are obtained from clinic/hospital and purchased from public organizations. (1) Gram-positive bacteria: methicillin-sensitive Staphylococcus aureus (MSSA), methicillin-resistant Staphylococcus aureus (MRSA), methicillin-resistant Staphylococcus epidermidis (MRSE), methicillin-sensitive Staphylococcus epidermidis (MSSE), penicillin-sensitive Streptococcus pneumoniae (PSSP), penicillin-resistant Streptococcus pneumoniae (PRSP); (2) Gram-negative bacteria: Escherichia coli (products from ESBLs), Klebsiella pneumonia, Pseudomonas aeruginosa. Drugs to be tested: Compound A-E, self-made as described above; Control drugs: Meropenem (Meropenem for injection), Ertapenem (Ertapenem for injection), commercially available. Experimental Method: the agar dilution method, by reference to Methodology of Pharmacological Experiment (XU Shuyun et al, published by the Peoples Medical Publishing House, 1st Edition, August, 1982; 3rd Edition, 5th printing, January 2002, p 1659-1660).

[1] = system: methicillin-resistant Staphylococcus aureus (MRSA); assay: as above; format: cell-based; details: MRSA clinical isolates
Text: as §1

[2] = system: methicillin-resistant Staphylococcus epidermidis (MRSE); assay: as above; format: cell-based; details: MRSE clinical isolates
Text: as §1

[3] = system: methicillin-sensitive Staphylococcus aureus (MSSA); assay: as above; format: cell-based; details: MSSA clinical isolates
Text: as §1

[4] = system: methicillin-sensitive Staphylococcus epidermidis (MSSE); assay: as above; format: cell-based; details: MSSE clinical isolates
Text: as §1

[5] = system: penicillin-resistant Streptococcus pneumoniae (PRSP); assay: as above; format: cell-based; details: PRSP clinical isolates
Text: as §1

[6] = system: penicillin-sensitive Streptococcus pneumoniae (PSSP); assay: as above; format: cell-based; details: PSSP clinical isolates
Text: as §1

pseudomonas aeruginosa = assay: as above; format: cell-based; details: pseudomonas aeruginosa clinical isolates
Text: as §1

proteus mirabilis = assay: as above; format: cell-based; details: proteus mirabilis clinical isolates
serratia marcescens = assay: as above; format: cell-based; details: serratia marcescens clinical isolates
[7] = In vivo pharmacokinetics of SD rat
Description: Drugs to be Tested and Preparation Thereof
Drugs to be tested: partial compounds of the present invention, self-synthesized as described above.
Control drugs: Ertapenem (Ertapenem for Injection), commercially available.
Internal standard substance: Warfarin, white powder, purity: 99%, batchnumber: 0072-8501, provided by Shanghai Institute for Drug Control.
Drug formulation: being dissolved in physiological saline to make the final concentration to be 5 mg/mL for intravenous injection and formulated before administration.
Test animal: SD male rats, weight: 200˜250 g, purchased from SHANGHAI SLAC LABORATORY ANIMAL CO. LTD.
Administration of the drugs to be tested: The SD male rats were randomly divided into five groups, 3 in each group, administrated by intravenous injection in an amount of 10 mg/kg; and weighted before administration.
Collection of Samples: Zero time was marked before administration; 0.5 mL of blood was respectively sampled from orbit venous plexus at 5 min, 15 min, 30 min, 45 min, 1 h, 2 h, 4 h, 6 h, 8 h, 24 h after administration into heparinized centrifuge tubes. The samples were centrifuged for 6 minutes at 8000 rpm and the supernatant plasma was separated. The plasma was freezed at −20° C. for LC-MS/MS analysis. Establishing liquid chromatography-mass spectrometry (LC-MS) methodology: Chromatographic conditions: chromatographic column. Gemini C6-Phenyl (50 mm×4.6 mm, 5 μm), mobile phase: 0.1% of formic acid-water-acetonitrile (5:35:60, v/v/v); flow rate: 1 mL/min; column temperature: 35-40° C., injection volume: 5 μL; split ratio: 1/5. Mass spectrometer conditions: scanning pattern: cation multiple reactions monitoring (MRM); ion source: electrospray ionization (ESI); Nebulize gas: 8 L/min; Curtain gas: 8 L/min; Collision gas: 4 L/min; Ionspray voltage: 4500 v; Temperature: 400° C./500° C. Preparation of the Standard Curve and Quality-Control Sample: a Suitable Amount of the drug to be tested was weighted precisely and then formulated into a stock solution (2.6 mg/mL) with ultrapure water. The stock solution was diluted with methanol to obtain a series of working solutions in a concentration of 25000, 5000, 2500, 500, 250 and 50 ng/mL respectively. 100 μL of plasma samples were respectively added into 20 μL of said working solutions to obtain the calibrated solutions in a concentration of […]. By the same method, the quality-controlled sample solutions in a concentration of 4000, 800 and 20 ng/mL can be prepared. A standard curve was obtained by chromatographic analysis of the sample. Methods for handling of sample: 20 μL of acetonitrile and 200 μL (200 ng/mL) Warfarin in acetonitrile were added into 100 μL of plasma sample, then spun for 1 minute and centrifuged for 5 minutes at 15000 rpm. 100 μL of the supernatant was taken, where 3 μL was used for the LC/MS/MS analysis. Results and Discussions: Concentration to be administered: The formulated drugs were determined using HPLC, and compared with the standard to obtain that the accuracy of the concentration of the drug solution administered by intravenous injection was 103.2%. Data analysis: The drug concentration in plasma would be considered as zero if under detectable limit (10 ng/mL). The pharmacokinetics parameters were calculated by the non-compartment model using Winnonlin Professional 5.2 pharmacokinetics software. Pharmacokinetics: The pharmacokinetics parameters and drug-time curve were obtained by measuring the plasma drug concentration at different time points. The half lives (t1/2) of the tested compounds were summarized in Table 3, wherein the half lives of the compounds of the present invention in rats (intravenous injection) were longer than those of Meropenem and Ertapenem.

[8] = SD male rats, intravenous injection 10 mg/kg, plasma, X ± SD

Half lives t1/2 ([7]; rat, in vivo, iv, 10 mg/kg) [min] | Structure (SMILES) | MIC90 (klebsiella pneumonia) [µg/mL] | MIC90 [1] [µg/mL] | MIC90 [2] [µg/mL] | MIC90 [3] [µg/mL] | MIC90 [4] [µg/mL] | MIC90 [5] [µg/mL] | MIC90 [6] [µg/mL] | MIC90 (pseudomonas aeruginosa) [µg/mL] | MIC90 (proteus mirabilis) [µg/mL] | MIC90 (serratia marcescens) [µg/mL] | Half lives t1/2 [7, 8] [min]
– | C[C@@H](O)[C@H]1C(=O)N2C(C(=O)O)=C(S[C@@H]3CN[C@H](C(=O)NCc4ccc(S(N)(=O)=O)o4)C3)[C@H](C)[C@H]12 [Compound E, (4R,5S,6S)-3-[(2S,4S)-2-formyl[[furan-2-sulphonylamino-5-ylmethyl]amino]-pyrrolidine-4-yl]thio-6-[(1R)-1-hydroxyethyl]-4-methyl-7-oxo-1-aza-bicyclo[3.2.0]hept-2-ene-2-carboxylic acid] | 0.5 (≈ 0.972 µM) | 64 (≈ 124 µM) | 2 (≈ 3.89 µM) | 0.25 (≈ 0.486 µM) | 0.125 (≈ 0.243 µM) | 2 (≈ 3.89 µM) | 0.008 (≈ 0.0155 µM) | 32 (≈ 62.2 µM) | 0.063 (≈ 0.122 µM) | 0.063 (≈ 0.122 µM) | 41.4 ± 2.4
– | C[C@@H](O)[C@H]1C(=O)N2C(C(=O)O)=C(S[C@@H]3CN[C@H](C(=O)NCc4ccc(C(=O)O)o4)C3)[C@H](C)[C@H]12 [Compound B, (4R,5S,6S)-3-[(2S,4S)-2-formyl[[furan-2-carboxy-5-ylmethyl]amino]-pyrrolidine-4-yl]thio-6-[(1R)-1-hydroxyethyl]-4-methyl-7-oxo-1-aza-bicyclo[3.2.0]hept-2-ene-2-carboxylic acid] | 0.5 (≈ 1.04 µM) | 64 (≈ 133 µM) | 2 (≈ 4.17 µM) | 0.25 (≈ 0.521 µM) | 0.25 (≈ 0.521 µM) | 1 (≈ 2.09 µM) | 0.008 (≈ 0.0167 µM) | 32 (≈ 66.7 µM) | 0.063 (≈ 0.131 µM) | 0.063 (≈ 0.131 µM) | 43.2 ± 1.8
– | C[C@@H](O)[C@H]1C(=O)N2C(C(=O)O)=C(S[C@@H]3CN[C@H](C(=O)NCc4cc(C(=O)O)co4)C3)[C@H](C)[C@H]12 [Compound D, (4R,5S,6S)-3-[(2S,4S)-2-formyl[[furan-3-carboxy-5-ylmethyl]amino]-pyrrolidine-4-yl]-thio-6-[(1R)-1-hydroxyethyl]-4-methyl-7-oxo-1-aza-bicyclo[3.2.0]hept-2-ene-2-carboxylic acid] | 0.125 (≈ 0.261 µM) | 32 (≈ 66.7 µM) | 2 (≈ 4.17 µM) | 0.25 (≈ 0.521 µM) | 0.125 (≈ 0.261 µM) | 1 (≈ 2.09 µM) | 0.008 (≈ 0.0167 µM) | 64 (≈ 133 µM) | 0.063 (≈ 0.131 µM) | 0.063 (≈ 0.131 µM) | 19.8 ± 1.2
36 ± 1.8 | C[C@@H](O)[C@H]1C(=O)N2C(C(=O)O)=C(S[C@@H]3CN[C@H](C(=O)Nc4cccc(C(=O)O)c4)C3)[C@H](C)[C@H]12 [Ertapenem, reference compound] | 1 (≈ 2.1 µM) | > 64 | 2 (≈ 4.21 µM) | 0.5 (≈ 1.05 µM) | 0.25 (≈ 0.526 µM) | 2 (≈ 4.21 µM) | 0.016 (≈ 0.0336 µM) | > 64 | 0.063 (≈ 0.132 µM) | 0.125 (≈ 0.263 µM) | –
– | C[C@@H](O)[C@H]1C(=O)N2C(C(=O)O)=C(S[C@@H]3CN[C@H](C(=O)NCc4ccc(CC(=O)O)o4)C3)[C@H](C)[C@H]12 [Compound C, (4R,5S,6S)-3-[(2S,4S)-2-formyl[[furan-2-carboxymethyl-5-ylmethyl]amino]pyrrolidine-4-yl]thio-6-[(1R)-1-hydroxyethyl]-4-methyl-7-oxo-1-aza-bicyclo[3.2.0]hept-2-ene-2-carboxylic acid] | 0.5 (≈ 1.01 µM) | 64 (≈ 130 µM) | 1 (≈ 2.03 µM) | 0.25 (≈ 0.507 µM) | 0.25 (≈ 0.507 µM) | 0.5 (≈ 1.01 µM) | 0.016 (≈ 0.0324 µM) | 32 (≈ 64.8 µM) | 0.063 (≈ 0.128 µM) | 0.063 (≈ 0.128 µM) | 46.8 ± 1.8
– | C[C@@H](O)[C@H]1C(=O)N2C(C(=O)O)=C(S[C@@H]3CN[C@H](C(=O)NCc4ccco4)C3)[C@H](C)[C@H]12 [Compound A, (4R,5S,6S)-3-[(2S,4S)-2-formyl[[furan-2-ylmethyl]amino]pyrrolidine-4-yl]thio-6-[(1R)-1-hydroxyethyl]-4-methyl-7-oxo-1-aza-bicyclo[3.2.0] hept-2-ene-2-carboxylic acid] | 0.125 (≈ 0.287 µM) | 32 (≈ 73.5 µM) | 1 (≈ 2.3 µM) | 0.125 (≈ 0.287 µM) | 0.125 (≈ 0.287 µM) | 0.5 (≈ 1.15 µM) | 0.008 (≈ 0.0184 µM) | 64 (≈ 147 µM) | 0.063 (≈ 0.145 µM) | 0.063 (≈ 0.145 µM) | 21 ± 2.4
– | C[C@@H](O)[C@H]1C(=O)N2C(C(=O)O)=C(S[C@@H]3CN[C@H](C(=O)N(C)C)C3)[C@H](C)[C@H]12 [Meropenem, reference compound] | 0.5 (≈ 1.3 µM) | 64 (≈ 167 µM) | 2 (≈ 5.22 µM) | 0.25 (≈ 0.652 µM) | 0.125 (≈ 0.326 µM) | 1 (≈ 2.61 µM) | 0.008 (≈ 0.0209 µM) | 32 (≈ 83.4 µM) | 0.063 (≈ 0.164 µM) | 0.063 (≈ 0.164 µM) | 6.6 ± 1.2
